The series can be described thus: solvent given as SMILES.

Consider `CC1=CC(C)=[N+]2C1=Cc1c3ccccc3c(C#Cc3ccc(F)cc3)n1[B-]2(F)F`, for which the absorption maximum turned out to be 609 nm (in CCCCCC), 613 nm (in CCCCCCCCO), 607 nm (in CCOC(C)=O) and 612 nm (in CN(C)C=O).
In the case of `CC(C)(C)NC1=C2C=CC=[N+]2[B-](F)(F)n2cccc21`, the absorption maximum came out at 428 nm (in C1CCCCC1); 409.5 nm (in CC(C)=O); 412.5 nm (in CCO); 412 nm (in CCOC(C)=O); 410 nm (in CO); 406 nm (in OCC(F)(F)F).
As to `CC(C)(C)c1ccc2c(c1)c1cc(C(C)(C)C)ccc1n2-c1ccc(-c2nc3c(C#N)ccc(C#N)c3nc2-c2ccc(-n3c4ccc(C(C)(C)C)cc4c4cc(C(C)(C)C)ccc43)cc2)cc1`, where the note is “in Cc1ccccc1”, the absorption maximum was determined as 467 nm.
For the compound `FC(F)(F)C(F)(F)C(F)(F)c1nc2c(-c3ccsc3)cc3c4cc(-c5ccsc5)c5nc(C(F)(F)C(F)(F)C(F)(F)F)nc6c(-c7ccsc7)cc(c7cc(-c8ccsc8)c(n1)c2c37)c4c56`, under “in C1CCOC1”, the absorption maximum amounted to 538 nm.
As to `c1ccc(N(c2ccccc2)c2ccc(-c3ccc(-c4cc(-c5ccccn5)nc(-c5ccccn5)c4)cc3)cc2)cc1`, the absorption maximum (in ClCCl) came to 284 nm.
On to `COc1ccc2c(c1)N(c1ccccc1-c1ccccc1)c1cc3c(cc1=N2)Oc1c(cc(C(C)(C)C)cc1C(C)(C)C)N=3`, for which the absorption maximum was 532 nm (in CC#N), 559 nm (in CCCCCC) and 552 nm (in CO).
The compound `CCC(C)(C)c1ccc(-c2ccc(-c3ccccc3)cc2)cc1` gave an absorption maximum (in C1COCCO1) of 287 nm.
`CC(C)(C)c1ccc2c(c1)c1cc(C(C)(C)C)ccc1n2-c1cccc(-c2nc(-c3cccc(-n4c5ccc(C(C)(C)C)cc5c5cc(C(C)(C)C)ccc54)c3)nc(-c3cccc(P(=O)(c4ccccc4)c4ccccc4)c3)n2)c1`: the absorption maximum by setting is: (in C1CCOC1) 344.36 nm; (in CC#N) 344.36 nm; (in CC(C)=O) 344.36 nm; (in CN(C)C=O) 344.36 nm; (in Cc1ccccc1) 344.36 nm; (in ClC(Cl)Cl) 344.36 nm. Also, under “in ClCCl”, the absorption maximum was found to be 344.36 nm.
Under “in ClCCl”, `COc1cc2c3sc4ccccc4c3c3cncnc3c2c(OC)c1OC` yielded an absorption maximum of 376 nm.
Compound `CC(C)(C)c1ccc2oc3nc4oc5ccc(N(c6ccccc6)c6ccccc6)cc5c4cc3c2c1` displayed an absorption maximum (in ClC(Cl)Cl) of 342 nm.
Turning to `CCN(CC)c1c2ccc(=[N+]3CCCCC3)cc-2oc2cc(N3CCCCC3)ccc12`, the absorption maximum (in ClCCl) amounted to 499 nm.
Same read-out and setting: the result for `CCN(CC)c1ccc2c(c1)oc(=O)c1cc3c(-c4ccccc4)nn(C)c3nc12` reads 350 nm.
`N#CC(C#N)=Cc1ccc2nc(C#Cc3ccc(N(c4ccc(C#Cc5nc6ccc(C=C(C#N)C#N)cc6s5)cc4)c4ccc(C#Cc5nc6ccc(C=C(C#N)C#N)cc6s5)cc4)cc3)sc2c1` showed an absorption maximum (in Cc1ccccc1) of 440 nm.
Consider `Clc1ccccc1N1c2sc3ccccc3c2Sc2sc3ccccc3c21`, for which the absorption maximum (in ClCCl) stood at 314 nm.
Consider `CC(=O)c1c2c(cc3ccc(N(C)C)cc13)CCC2`, for which the absorption maximum was 373 nm (in C1CCCCC1); 377 nm (in C1CCOC1); 376 nm (in C1COCCO1); 375 nm (in CC#N); 377 nm (in CCO); 377 nm (in CS(C)=O). Moreover, the absorption maximum is 376 nm (in Cc1ccccc1), 377 nm (in ClC(Cl)Cl) and 377 nm (in ClCCl).
On to `CCC1=C(C)C2=Cc3c(I)c(I)cn3[B-](F)(F)[N+]2=C1C`, for which the absorption maximum runs as follows: (in C1CCCCC1) 527.5 nm; (in CC(C)=O) 509 nm; (in CCO) 517.5 nm; (in CCOC(C)=O) 515 nm; (in CO) 513 nm; (in OCC(F)(F)F) 501 nm.

These data come from the Deep4Chem optical property database.
